The source of these data is patent US10407422B2, “Triazolopyridine inhibitors of myeloperoxidase” (priority 2015, dated 2019).

The IC50 is the midpoint of a concentration-inhibition curve. Low readings indicate greater potency, high ones weaker potency.

Each structure is given as a SMILES string.

Common to all, as to assay type: biochemical
In test [1] the target is T1, myeloperoxidase (MPO) (Homo sapiens (Human), UniProt P05164). The test is described as follows: MPO chlorination assay (APF assay). The conditions noted are these: potency range class. An outline of the steps:
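Human MPO (200 pM) preincubated 10 min at room temperature with inhibitor and 120 mM NaCl in 100 mM KPi pH 7.4. Reaction started with APF plus 10 μM H2O2, and hypochlorite-generated fluorescein read kinetically (ex 485/em 535 nm) for 3 min. IC50 from linear-phase slopes fitted to a four-parameter equation.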

Test [2] concerns the target eosinophil peroxidase (EPX) (Homo sapiens (Human), UniProt P11678). The test is described as follows: EPX bromination assay. The procedure:
[formula] where A=minimal Y value (activity level of inhibited sample), B=maximal Y value (activity level of uninhibited sample), C=Log IC50, D=Hill Slope, x=concentration of inhibitor. EPX Bromination Assay
EPX bromination activity was measured in 100 mM KPi (pH 7.4) by monitoring the H2O2 catalyzed formation of 3-bromo tyrosine from tyrosine and potassium bromide. A 50 μl mixture of 0.6 μM EPX (Lee Biosolutions Cat. #342-60) was added to 100 nL inhibitor in 100% DMSO in a 384 well REMP plate. Enzyme and compound were preincubated for ten minutes at room temperature.
After the ten minute preincubation of enzyme and inhibitor, 25 μL of a mixture containing 400 μM tyrosine and 1200 μM potassium bromide was added to the plate containing enzyme and inhibitor, followed by the addition of 25 μl of 20 μM H2O2. The reaction was allowed to proceed for 15 minutes, at which time it was quenched with 10 μL of 20% TCA. The final concentrations of all components were 0.3 μM EPX, 100 μM tyrosine, […], 5 μM H2O2, 0.1% DMSO, 2.0% TCA.
IC50 values were determined by determining the peak areas of 3-bromotyrosine present at the end of the 15 minute reaction and fitting the data to:
[formula] where A=minimal Y value (activity level of inhibited sample), B=maximal Y value (activity level of uninhibited sample), C=Log IC50, D=Hill Slope, x=concentration of inhibitor.
Reversed-phase analysis was performed on a Waters Acquity Ultra Performance LC system using an Acquity UPLC BEH C18 […], 2.1×50 mm analytical column. The column was maintained at 60° C. Samples were eluted using a gradient of 0%-100% B over 2.5 minutes, followed by equilibration with 100% A for 1 minute where A consisted of 0.1% TFA and B consisted of 90% MeOH/0.1% TFA at a flow rate of 0.6 mL/min. The retention time of 3-bromo tyrosine was 1.22 min (Method A).

Test [3] deals with T1, myeloperoxidase (MPO). Briefly: MPO peroxidation assay (Amplex Red assay). As to conditions: potency range class. An outline of the steps:
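Human MPO at 200 pM with 40 nM H2O2 preincubated 10 min at room temperature with inhibitor in 100 mM KPi pH 7.4. Reaction started with Amplex Red mixture (200 μM Amplex Red, 10 mM H2O2); resorufin fluorescence (Ex 535, Em 590 nm) read kinetically for 15 min. IC50 fitted from slopes over 180-540 s.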

Chain of eosinophil peroxidase (EPX) (P11678 140-715): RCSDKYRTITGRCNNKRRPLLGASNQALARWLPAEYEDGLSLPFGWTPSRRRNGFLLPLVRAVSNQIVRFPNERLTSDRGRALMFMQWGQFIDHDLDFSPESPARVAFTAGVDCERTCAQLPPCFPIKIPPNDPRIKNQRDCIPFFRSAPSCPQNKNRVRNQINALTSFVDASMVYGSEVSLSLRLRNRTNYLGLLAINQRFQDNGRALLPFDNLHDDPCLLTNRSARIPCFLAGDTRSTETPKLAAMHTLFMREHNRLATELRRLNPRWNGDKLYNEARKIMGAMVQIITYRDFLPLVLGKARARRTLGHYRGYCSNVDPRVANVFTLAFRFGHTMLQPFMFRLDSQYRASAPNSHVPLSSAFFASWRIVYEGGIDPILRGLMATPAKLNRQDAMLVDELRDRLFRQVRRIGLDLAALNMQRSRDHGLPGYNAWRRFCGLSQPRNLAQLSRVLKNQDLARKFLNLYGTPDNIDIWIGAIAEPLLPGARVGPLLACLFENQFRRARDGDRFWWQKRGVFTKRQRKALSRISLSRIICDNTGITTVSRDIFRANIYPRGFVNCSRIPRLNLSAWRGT
T1 sequence (P05164 49-745): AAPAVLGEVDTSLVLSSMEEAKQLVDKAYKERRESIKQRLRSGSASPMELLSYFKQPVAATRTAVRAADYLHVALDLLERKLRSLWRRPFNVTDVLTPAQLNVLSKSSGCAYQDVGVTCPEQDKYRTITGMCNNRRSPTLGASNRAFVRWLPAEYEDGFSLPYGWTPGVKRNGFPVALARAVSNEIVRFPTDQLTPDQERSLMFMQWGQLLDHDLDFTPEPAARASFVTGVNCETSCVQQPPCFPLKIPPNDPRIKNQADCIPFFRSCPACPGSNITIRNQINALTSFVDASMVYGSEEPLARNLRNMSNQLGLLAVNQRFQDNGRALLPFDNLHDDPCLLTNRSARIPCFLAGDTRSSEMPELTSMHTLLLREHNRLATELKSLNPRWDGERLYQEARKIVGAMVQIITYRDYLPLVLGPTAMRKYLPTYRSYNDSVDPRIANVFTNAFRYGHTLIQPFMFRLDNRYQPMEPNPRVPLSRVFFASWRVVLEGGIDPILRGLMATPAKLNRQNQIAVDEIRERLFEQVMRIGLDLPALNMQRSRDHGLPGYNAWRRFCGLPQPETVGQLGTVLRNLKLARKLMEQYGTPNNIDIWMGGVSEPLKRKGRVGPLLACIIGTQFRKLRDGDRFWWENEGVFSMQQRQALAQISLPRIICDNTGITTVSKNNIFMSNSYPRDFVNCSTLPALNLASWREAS

Consider `Nc1cc(Cc2cnn(Cc3ccccc3)c2)c2nn[nH]c2n1` [Example 34, 7-((1-Benzyl-1H-pyrazol-4-yl)methyl)-3H-[1,2,3]triazolo[4,5-b]pyridin-5-amine], for which the IC50 against myeloperoxidase (MPO) [1] was 101 to 999 nM; in test [2], 30 nM; at myeloperoxidase (MPO) [3] it was 1 to 100 nM.
As for `Nc1cc(Cc2cnn(-c3ccc(F)cc3)c2)c2nn[nH]c2n1` [Example 1, 7-((1-(4-Fluorophenyl)-1H-pyrazol-4-yl)methyl)-3H-[1,2,3]triazolo[4,5-b]pyridin-5-amine], the values for the IC50 (on myeloperoxidase (MPO) [1]; in test [2]; at myeloperoxidase (MPO) [3]) were 1 to 100 nM, 19 nM and 1 to 100 nM, respectively.
For the compound `Nc1cc(Cc2cnn(Cc3ccc4c(c3)CCNC4)c2)c2nn[nH]c2n1` [Example 130, 7-((1-((1,2,3,4-Tetrahydroisoquinolin-6-yl)methyl)-1H-pyrazol-4-yl)methyl)-3H-[1,2,3]triazolo[4,5-b]pyridin-5-amine], the IC50 against myeloperoxidase (MPO) [1] was 1 to 100 nM; in test [2], 8 nM; against myeloperoxidase (MPO) [3], 1 to 100 nM.
On to `Nc1cc(Cc2cnn(Cc3ccc(CNC4CC4)cc3)c2)c2nn[nH]c2n1` [Example 185, 7-{[1-({4-[(Cyclopropylamino)methyl]phenyl}methyl)-1H-pyrazol-4-yl]methyl}-3H-[1,2,3]triazolo[4,5-b]pyridin-5-amine], for which the IC50 was 101 to 999 nM against myeloperoxidase (MPO) [1], 45 nM in test [2] and 1 to 100 nM on myeloperoxidase (MPO) [3].
Regarding `Nc1cc(Cc2cnn(-c3ccccc3)c2)c2nn[nH]c2n1` [Example 5, 7-((1-Phenyl-1H-pyrazol-4-yl)methyl)-3H-[1,2,3]triazolo[4,5-b]pyridin-5-amine], the IC50 is 1 to 100 nM at myeloperoxidase (MPO) [1], 11 nM in test [2] and 1 to 100 nM against myeloperoxidase (MPO) [3].
For the compound `Nc1cc(Cc2cnn(Cc3cccc(C4CCNC4)c3)c2)c2nn[nH]c2n1` (stereo not drawn) [Example 187, 7-[(1-{[3-(Pyrrolidin-3-yl)phenyl]methyl}-1H-pyrazol-4-yl)methyl]-3H-[1,2,3]triazolo[4,5-b]pyridin-5-amine], the values for the IC50 (on myeloperoxidase (MPO) [1]; in test [2]; against myeloperoxidase (MPO) [3]) were 1 to 100 nM, 21 nM and 1 to 100 nM, respectively.
On to `Nc1cc(Cc2cnn(Cc3ccc4c(c3)C(F)(F)CNC4)c2)c2nn[nH]c2n1` [Example 260, 7-({1-[(4,4-Difluoro-1,2,3,4-tetrahydroisoquinolin-6-yl)methyl]-1H-pyrazol-4-yl}methyl)-3H-[1,2,3]triazolo[4,5-b]pyridin-5-amine], for which the IC50 against myeloperoxidase (MPO) [1] was 101 to 999 nM; in test [2], 114 nM; against myeloperoxidase (MPO) [3], 1 to 100 nM.
The like results for `Nc1cc(Cc2cn(Cc3ccccc3)nn2)c2nn[nH]c2n1` [Example 52, 7-((1-Benzyl-1H-1,2,3-triazol-4-yl)methyl)-3H-[1,2,3]triazolo[4,5-b]pyridin-5-amine] were, in that order, 101 to 999 nM, 20 nM and 1 to 100 nM.
